Among the data in patent US20110098288A1, “SULFONAMIDES AS ZAP-70 INHIBITORS” (priority 2008, published 2011) are IC50 values, retold here.

One experiment addresses T1, ZAP-70 (Homo sapiens, UniProt P43403).
T1 construct: endogenous in cells; host or cells: cell lysate
T1 sequence (P43403 1-619): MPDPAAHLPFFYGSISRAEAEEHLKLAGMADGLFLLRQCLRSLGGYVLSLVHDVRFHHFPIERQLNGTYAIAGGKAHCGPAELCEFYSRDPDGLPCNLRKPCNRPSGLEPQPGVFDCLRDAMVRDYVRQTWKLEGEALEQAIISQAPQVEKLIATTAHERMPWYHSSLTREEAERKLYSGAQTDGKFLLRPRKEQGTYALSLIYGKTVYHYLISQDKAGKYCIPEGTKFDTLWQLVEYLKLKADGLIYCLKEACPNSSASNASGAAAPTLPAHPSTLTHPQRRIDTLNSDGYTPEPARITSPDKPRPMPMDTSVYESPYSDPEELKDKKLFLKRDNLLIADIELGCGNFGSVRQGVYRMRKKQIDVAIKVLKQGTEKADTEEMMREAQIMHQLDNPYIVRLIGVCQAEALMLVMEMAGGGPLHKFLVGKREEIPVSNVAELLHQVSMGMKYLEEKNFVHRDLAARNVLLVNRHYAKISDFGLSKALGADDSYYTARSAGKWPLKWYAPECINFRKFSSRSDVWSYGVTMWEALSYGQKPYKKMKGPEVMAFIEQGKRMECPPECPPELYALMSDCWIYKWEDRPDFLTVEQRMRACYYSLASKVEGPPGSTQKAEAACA
As to the kind of experiment: ZAP-70 kinobeads assay. The class given is binding. The conditions noted are these: competition with immobilized aminopyrido-pyrimidine ligand 24 in cell lysate; ZAP-70 detected by dot blot. Summed up:
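Competition binding format: compounds compete with a bead-immobilized aminopyrido-pyrimidine ligand for ZAP-70 in cell lysate. After bead separation and elution, bound ZAP-70 measured by antibody dot blot with infrared read-out.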

Another experiment relates to Jurkat cells. Kind of experiment: Calcium release assay (Fluo-4 flow cytometry after anti-CD3 stimulation). It counts as cell-based. Particulars: Homo sapiens, Jurkat cell line J77, anti-CD3 activation, read-out: IC50 (Calcium ion release in cells). On the procedure:
Compounds of the present invention were tested in a Calcium release assay as described below.
The development of fluorescent probes makes it possible to measure the concentration of intracellular free Calcium ions in single living cells. Cells are first loaded with a cell-permeable Ca^2+-sensitive dye, then the test compound is added. Finally, cells are activated through the T cell receptor with an anti-CD3 antibody shortly before data acquisition on the flow cytometer. The release of Ca^2+ is measured as a function of time after cell stimulation. This protocol describes the flow cytometry method using the Fluo-3 and Fluo-4 dyes (Minta et al., 1989, J. Biol. Chem. 264(14):8171-8178) to measure the intracellular Ca^2+ concentration in Jurkat cells (see also June et al., 1997, Measurement of intracellular calcium ions by flow cytometry. In: Current Protocols in Cytometry (1997) Unit 9.8.1-9.8.19, John Wiley & Sons, Inc.).
In general, cells should be handled in the shortest time possible to assure their stability. Therefore the preparation of all materials in advance is highly recommended as well as using any incubation or centrifugation time to prepare the next steps (e.g. preparing compound dilution or starting the flow cytometer).
1) Prepare a work plan indicating the number of samples to be analyzed including controls. 2) Cell harvest: Centrifuge 50 to 100 ml of a Jurkat cell culture for 5 minutes at 1100 rpm. Discard the supernatant, pool the resuspended cell pellets in a single 50 ml Falcon tube, and fill up to 50 ml with PBS—CaCl2 (without FCS). Centrifuge again sample again. 3) Resuspend cell pellet with PBS—CaCl2 (without FCS) to achieve a concentration not lower than 10×10^6 cells/ml. Prepare an adequate dilution to evaluate the cell concentration and count the cells. 4) Separate the volume of cells needed to be loaded (for example […] for 20 samples) in a 50 ml Falcon tube. Fill up with PBS—CaCl2 to 900 μl for 107 cells. 5) Prepare in the dark a 1:1 mix of FLUO-4 (1 mM)+Pluronic F-127 (20%). 5 μl of Fluo-4 are needed per 107 cells. 6) Prepare a 1/10 dilution of this mix with PBS—CaCl2 (in the dark; for example 5 μl Fluo-4+5 μl F-127 completed to 100 μl). 7) Add the dye solution to the cells. […] 8) Incubate the sample for 30 minutes in a cell incubator (37° C., 5% CO2). Mix from time to time. 9) During this time prepare the adequate test compound dilution in PBS—CaCl2 (with 10% FCS). The solution should be 10 times more concentrated than the desired final concentration. Vortex each dilution. Prepare also the antibody dilutions: anti-CD3 (1/200) and GAM (1/25). 10) Label FACS tubes and distribute in the corresponding tube 30 μl of the compound dilution or only buffer for the control tubes. 11) After 30 minutes of incubation wash the cells twice in PBS—CaCl2 (with 10% FCS). During the washing steps make sure that the flow cytometer is already “ON” in order to warm the laser. 12) Resuspend the cell pellet in PBS—CaCl2 (with 10% FCS) at a concentration of 1.5×10^6 cells/ml. 13) Distribute 300 μl of cell suspension into the FACS tubes and mix gently. The compound incubation is starting. Keep samples at room temperature in the dark. 14) Open the settings of the cytometer. It is advised to have a template ready which is used for all measurements. Settings of the machine should also be the same from one experiment to the other which permits to evaluate the reproducibility of the cell preparation. 15) In Setup modus control your cell preparation on the cytometer. Cells should fit in the pre-defined gates. 16) During the compound incubation time, check also that cells are responding to the anti-CD3 activation as expected. Set a timer at 8 sec. Add 6 μl of anti-CD3 dilution (0.2 μg/ml final) and mix gently. Add 1 μl of GAM dilution (0.75 μg/ml final) and mix gently. Incubate the samples in water bath at 37° C. while starting timer. After 8 seconds of incubation, acquire data at medium speed for 200 seconds. […]

The structures appear in SMILES notation.

Take `CS(=O)(=O)Nc1ccccc1Nc1nc(Nc2cccc(OCCN3CCCC3)c2)ncc1F` [Example 95, N-(2-(5-fluoro-2-(3-(2-(pyrrolidin-1-yl)ethoxy)phenylamino)pyrimidin-4-ylamino)phenyl)methanesulfonamide]: the IC50 is below 100 nM at ZAP-70 and 100 to 1000 nM in the experiment on Jurkat cells.
Turning to `CS(=O)(=O)Nc1ccccc1Nc1nc(Nc2ccc(OCCN3CCCC3)cc2)ncc1F` [Example 96, N-(2-(5-fluoro-2-(4-(2-(pyrrolidin-1-yl)ethoxy)phenylamino)pyrimidin-4-ylamino)phenyl)methanesulfonamide], the IC50 at ZAP-70 and with Jurkat cells was 100 to 1000 nM each time.
For `CN1CCCCC1COc1cccc(Nc2ncc(F)c(Nc3ccccc3NS(C)(=O)=O)n2)c1` (stereo not drawn) [Example 97, N-(2-(5-fluoro-2-(3-((1-methylpiperidin-2-yl)methoxy)phenylamino)pyrimidin-4-ylamino)phenyl)methanesulfonamide], the figures for the IC50 on ZAP-70 and in the experiment with Jurkat cells were 100 to 1000 nM and below 100 nM, respectively.
For `CN1CCCC(COc2cccc(Nc3ncc(F)c(Nc4ccccc4NS(C)(=O)=O)n3)c2)C1` (stereo not drawn) [Example 98, N-(2-(5-fluoro-2-(3-((1-methylpiperidin-3-yl)methoxy)phenylamino)pyrimidin-4-ylamino)phenyl)methanesulfonamide], the values for the IC50 at ZAP-70 and with Jurkat cells were below 100 nM and 100 to 1000 nM, respectively.
As for `CCNC(=O)COc1cccc(Nc2ncc(F)c(Nc3ccccc3NS(C)(=O)=O)n2)c1` [Example 101, N-ethyl-2-(3-(5-fluoro-4-(2-(methylsulfonamido)phenylamino)pyrimidin-2-ylamino)phenoxy)acetamide], the IC50 on ZAP-70 and with Jurkat cells was 100 to 1000 nM each time.
As for `COc1cc(Nc2ncc(Br)c(Nc3ccccc3NS(C)(=O)=O)n2)ccc1C` [Example 104, N-(2-(5-bromo-2-(3-methoxy-4-methylphenylamino)pyrimidin-4-ylamino)phenyl)methanesulfonamide], the IC50 on ZAP-70 and in the experiment on Jurkat cells was 100 to 1000 nM throughout.
In the case of `COc1cc(Nc2ncc(Br)c(Nc3ccccc3NS(C)(=O)=O)n2)cc(OC)c1` [Example 105, N-(2-(5-bromo-2-(3,5-dimethoxyphenylamino)pyrimidin-4-ylamino)phenyl)methanesulfonamide], the values for the IC50 at ZAP-70 and in the experiment with Jurkat cells were 100 to 1000 nM and below 100 nM, respectively.
Regarding `COc1ccc(Nc2ncc(Br)c(Nc3ccccc3NS(C)(=O)=O)n2)cc1` [Example 106, N-(2-(5-bromo-2-(4-methoxyphenylamino)pyrimidin-4-ylamino)phenyl)methanesulfonamide], the IC50 on ZAP-70 and with Jurkat cells was 100 to 1000 nM throughout.
Take `COc1ccc(Nc2ncc(Br)c(Nc3ccccc3NS(C)(=O)=O)n2)cc1OC` [Example 107, N-(2-(5-bromo-2-(3,4-dimethoxyphenylamino)pyrimidin-4-ylamino)phenyl)methanesulfonamide]: the IC50 at ZAP-70 and with Jurkat cells was below 100 nM each time.
Take `Cc1cccc(Nc2nc(Nc3cccc(OCCN4CCCCC4)c3)ncc2F)c1NS(C)(=O)=O` [Example 112, N-(2-(5-fluoro-2-(3-(2-(piperidin-1-yl)ethoxy)phenylamino)pyrimidin-4-ylamino)-6-methylphenyl)methanesulfonamide]: the IC50 was below 100 nM on ZAP-70 and 100 to 1000 nM with Jurkat cells.
Consider `COc1cc(Nc2ncc(F)c(Nc3cccc(C)c3NS(C)(=O)=O)n2)cc(OC)c1OCCN1CCCCC1` [Example 113, N-(2-(2-(3,5-dimethoxy-4-(2-(piperidin-1-yl)ethoxy)phenylamino)-5-fluoropyrimidin-4-ylamino)-6-methylphenyl)methanesulfonamide], for which the figures for the IC50 on ZAP-70 and in the experiment with Jurkat cells were below 100 nM and 100 to 1000 nM, respectively.
On to `COc1cc(Nc2ncc(F)c(Nc3cccc(C)c3NS(C)(=O)=O)n2)cc(OCCN2CCCCC2)c1OC` [Example 114, N-(2-(2-(3,4-dimethoxy-5-(2-(piperidin-1-yl)ethoxy)phenylamino)-5-fluoropyrimidin-4-ylamino)-6-methylphenyl)methanesulfonamide], for which the IC50 is below 100 nM on ZAP-70 and 100 to 1000 nM with Jurkat cells.
`COc1cc(Nc2ncc(F)c(Nc3cccc(C)c3NS(C)(=O)=O)n2)cc(OC)c1OC` [Example 116, N-(2-(5-fluoro-2-(3,4,5-trimethoxyphenylamino)pyrimidin-4-ylamino)-6-methylphenyl)methanesulfonamide]: the IC50 on ZAP-70 and in the experiment with Jurkat cells was 100 to 1000 nM throughout.
For `CCOc1cc(Nc2ncc(F)c(Nc3cccc(C)c3NS(C)(=O)=O)n2)cc(OC)c1OC` [Example 117, N-(2-(2-(3-ethoxy-4,5-dimethoxyphenylamino)-5-fluoropyrimidin-4-ylamino)-6-methylphenyl)methanesulfonamide], the IC50 is below 100 nM at ZAP-70 and 100 to 1000 nM with Jurkat cells.
Turning to `COc1cc(Nc2ncc(F)c(Nc3cccc(C)c3NS(C)(=O)=O)n2)cc(OC(C)C)c1OC` [Example 118, N-(2-(5-fluoro-2-(3-isopropoxy-4,5-dimethoxyphenylamino)pyrimidin-4-ylamino)-6-methylphenyl)methanesulfonamide], the results for the IC50 at ZAP-70 and in the experiment with Jurkat cells were below 100 nM and 100 to 1000 nM, respectively.
On to `CS(=O)(=O)Nc1ccccc1Nc1nc(Nc2cccc(OCCO)c2)ncc1Cl` [Example 123, N-(2-(5-chloro-2-(3-(2-hydroxyethoxy)phenylamino)pyrimidin-4-ylamino)phenyl)methanesulfonamide], for which the 50% inhibitory concentration (IC50) at ZAP-70 and in the experiment with Jurkat cells was below 100 nM in each case.
Take `CS(=O)(=O)Nc1ccccc1Nc1nc(Nc2cccc(OCCN3CCCCC3)c2)ncc1Cl` [Example 124, N-(2-(5-chloro-2-(3-(2-(piperidin-1-yl)ethoxy)phenylamino)pyrimidin-4-ylamino)phenyl)methanesulfonamide]: the IC50 at ZAP-70 and in the experiment on Jurkat cells was below 100 nM in each case.
For `COc1ccc(Nc2ncc(Cl)c(Nc3ccccc3NS(C)(=O)=O)n2)cc1OCCN1CCCCC1` [Example 125, N-(2-(5-chloro-2-(4-methoxy-3-(2-(piperidin-1-yl)ethoxy)phenylamino)pyrimidin-4-ylamino)phenyl)methanesulfonamide], the IC50 at ZAP-70 was below 100 nM; in the experiment with Jurkat cells it was 100 to 1000 nM.

As a reminder, the IC50 is the concentration needed to halve the response being measured.
